The record followed here is US20250059139A1, “COMPOUNDS FOR TREATMENT OF CANCER” (THE JOHNS HOPKINS UNIVERSITY, priority 2021, published 2025).

The target of assay [1] is T1, fl-R681A/R798A double mutant HDAC4 (Homo sapiens, UniProt P56524, R681A/R798A).
T1 construct: Full-length (fl) [A.A. 1-1082] recombinant human histone deacetylase 4 (rhHDAC4) protein; FLAG (N); GST (given as 'with or without'); made in house; host or cells: HEK293-T
The assay is described as follows: SPR binding of fl-R681A/R798A double mutant HDAC4 to immobilized TasQ. The settings on record: TasQ in solution. As to the method: (§1) Surface Plasmon Resonance (SPR) Binding Analysis. SPR analysis was performed on the Biacore 3000™ system using CM5 sensor chips, certified buffers (HBS-P—10 mM HEPES, 0.15 M NaCl, pH 7.4, containing 0.005% v/v Surfactant P; HBS-EP-HBS-P with 3 mM EDTA) and reagents for immobilization and surface regeneration from Biacore, GE Healthcare, Uppsala Sweden. Evaluation of sensorgrams was performed using the BIA-evaluation Software version 4.1 and GraphPad Prism 4. Buffer of protein reagents were changed to HBS-P on Zeba spin desalting columns (Thermo Scientific) prior to being used in SPR analysis (Isaacs 2013).
A. Binding of wild-type and mutant forms of HDAC4 to immobilized TasQ. TasQ (ABR-215050; mol wt 406.4) was dissolved as a 40 mM solution in water with 1.5 equivalents of NaOH. TasQ with an amino-linker [i.e. —(CH2)2O(CH2)2—NH2](ABR-225180) in amide nitrogen position was used for amine coupling on to a Biacore CM5 sensor chip. A 1 mg/mL solution of ABR-225180 in HBS-P buffer was prepared and immobilized on a CM5 chip by injection at a flow rate of 5 or 10 μL/min until a stable response level was reached. Interaction of various HDAC4 forms with immobilized TasQ was studied by injection over this surface in HBS-P buffer containing 10 or 20 μM ZnCl2. Bound HDAC4 was removed by a pulse of 3 mM EDTA in HBS-P or 0.5 to 6.25 mM NaOH in water. […]

For assay [2], the target named is T2, fl-R681A/R798A double mutant HDAC4 / fl-NCoR1 (Homo sapiens, UniProt P56524, R681A/R798A).
T2 construct: Full-length (fl) [A.A. 1-1082] recombinant human histone deacetylase 4 (rhHDAC4) protein; FLAG (N); GST (given as 'with or without'); host or cells: HEK293-T (HDAC4)
The assay is described as follows: SPR inhibition of fl-R681A/R798A double mutant HDAC4 binding to fl-NCoR1. The note with it: plateau at 2 μM TasQ. As to the method:
as §1
C. Inhibition of HDAC4-NCoR1 interaction by TasQ. The interaction between HDAC4 and NCoR1 was studied either by injecting NCoR over immobilized HDAC4 or with an alternative orientation where HDAC4 was passed over a surface with covalently coupled NCoR1. Whether TasQ can inhibit the formation of the functional HDAC4-NCoR1 complex was tested by pre-incubation with NCoR1 or HDAC4.
These additional analyses again documented high-affinity binding of the wild-type fl-HDAC4 protein to fl-NCoR1 with such binding being competed by pre-incubation with TasQ in solution (FIG. 21).

The test system of assay [3] is human prostate cancer cell lines. The assay is described as follows: In vitro growth of human prostate cancer cell lines. The assay is classed as cell-based. The settings on record: CWR22Rv1, 3 of the 4 lines (FIGS. 48A-48C: BCap-1, LgCap-1, CWR-22Rv1). An excerpt:
Prostate Cancer Models. The source, history, and characteristics of the human prostate cancer cell lines and PDXs used, as well as cell culture conditions for their in vitro maintenance and the in vivo protocol for xenograft growth in triple immune-deficient NSG (i.e. NOD.Cg-PrkdcScidIl2rgtmlWji/Szj), adult (>8 week old) male mice obtained from the Sidney Kimmel Comprehensive Cancer Center (SKCCC) Animal Core Facility are described previously (Isaacs 2013; Brennen et al. JCI Insight. 2021, 6(8):e146827; Zhu et al. Oncogene 2020, 39(45): 6935-6949). […] In vitro growth curves were determined as described (Isaacs 2013). In vivo growth response to oral daily TasQ (10 mg/kg/d) of TRAMP-C2 mouse prostate cancers was evaluated in C57BL/6J syngeneic wild type vs. NOX-2 vs. iNOS null male mice obtained from Jackson Laboratory (Bar Harbor, ME). Growth response to oral daily TasQ (10 mg/kg/d) of TRAMP-C2 and B6CaP mouse prostate cancers was also evaluated in S100A9 null C57BL′6J male mice obtained from Dmitry Gabrilovich (Wistar Institute). […] In vitro growth curves were determined as described (Isaacs 2013). Growth response to daily oral TasQ vs. ESATA-20 (both at 10 mg/kg/d) of Myc-CaP-CR mouse prostate cancer was evaluated in syngeneic FVB/NJ castrate male mice from Jackson Laboratory. […]

Some results are limits rather than exact numbers.

T1 sequence (P56524 whole entry R681A/R798A): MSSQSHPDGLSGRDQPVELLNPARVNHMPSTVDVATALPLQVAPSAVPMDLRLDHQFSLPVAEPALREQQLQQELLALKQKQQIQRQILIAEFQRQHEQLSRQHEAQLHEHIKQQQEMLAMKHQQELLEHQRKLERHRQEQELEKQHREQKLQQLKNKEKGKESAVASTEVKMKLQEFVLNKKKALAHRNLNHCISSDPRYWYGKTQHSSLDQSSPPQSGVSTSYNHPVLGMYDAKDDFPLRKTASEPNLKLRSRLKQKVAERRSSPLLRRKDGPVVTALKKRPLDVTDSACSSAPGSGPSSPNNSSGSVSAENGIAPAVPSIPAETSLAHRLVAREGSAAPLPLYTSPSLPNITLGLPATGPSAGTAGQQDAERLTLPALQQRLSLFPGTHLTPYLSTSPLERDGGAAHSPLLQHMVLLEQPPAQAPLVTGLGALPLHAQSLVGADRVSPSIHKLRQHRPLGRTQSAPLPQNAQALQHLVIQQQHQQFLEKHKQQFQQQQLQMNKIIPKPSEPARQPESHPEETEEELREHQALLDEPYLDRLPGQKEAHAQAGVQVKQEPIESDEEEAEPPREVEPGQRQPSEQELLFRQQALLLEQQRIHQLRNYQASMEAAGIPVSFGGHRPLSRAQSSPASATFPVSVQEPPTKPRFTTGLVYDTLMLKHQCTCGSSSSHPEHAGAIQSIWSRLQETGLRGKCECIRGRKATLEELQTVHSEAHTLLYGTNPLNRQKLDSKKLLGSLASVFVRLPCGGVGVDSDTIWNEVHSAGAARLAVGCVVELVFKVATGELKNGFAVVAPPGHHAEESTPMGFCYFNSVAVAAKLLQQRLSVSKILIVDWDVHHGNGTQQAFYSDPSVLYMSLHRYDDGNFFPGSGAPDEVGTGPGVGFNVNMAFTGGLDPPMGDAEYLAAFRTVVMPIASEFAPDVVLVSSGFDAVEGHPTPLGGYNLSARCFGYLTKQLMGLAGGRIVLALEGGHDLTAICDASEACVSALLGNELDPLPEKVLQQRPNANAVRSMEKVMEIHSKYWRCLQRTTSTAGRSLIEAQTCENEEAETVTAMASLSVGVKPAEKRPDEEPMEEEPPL
T2 sequence (P56524 whole entry R681A/R798A): as above

What is called inhibition is the share of the control response that was lost under treatment. A higher inhibition goes with a strong effect. For the compound `COc1cccc2c1c(O)c(C(=O)N(C)c1ccc(C(F)(F)F)cc1)c(=O)n2C` [TasQ, Tasquinimod], in assay [1], the “competitive displacement of mutant HDAC4 from immobilized TasQ” value is reported as “not competitively displaced”. This compound also yielded an inhibition at 2 µM in assay [2] of under 35%.
For orientation: IC50 means the concentration needed to halve the response being measured. A low value points to inhibition by little substance. For `COc1cccc2c1c(O)c(C(=O)N(c1ccc(C(F)(F)F)cc1)C1CCCCC1)c(=O)n2C` [ESATA-20], the IC50 in assay [3] is under 10 µM.
